# Measurements published in US11434241B2, “Pyrimidine derivatives for prevention and treatment of bacterial infections” (UNIVERSITE DE LIEGE, priority 2018, dated 2022).
# Like-named read-outs stand apart in the source and are kept apart here.
# Legend:
# [1] = system: Murl isozyme from E. faecium; details: Table 9 of WO2009/034386; cited from earlier work
# [2] = system: S. aureus Xen29 (ATCC 12600); test: MIC determination on bioluminescent S. aureus Xen29; format: cell-based, Staphylococcus aureus; details: Staphylococcus aureus
# Description: (§1) Further experiments are conducted using different strains of S. aureus, as clinically relevant Gram-positive bacterial strains: S. aureus ATCC 25904, methicillin-resistant S. aureus (MRSA) ATCC BAA-1556, Glycopeptide intermediate-resistant (GISA) S. aureus Mu-50 (ATCC 700695) in order to determine the Minimal Inhibitory Concentration (MIC) which is the minimal concentration required to prevent bacterial growth. The bioluminescent strain S. aureus Xen29 (ATCC 12600) was also used. This strain is derived from the parental strain S. aureus ATCC 12600, a pleural fluid isolate, which is also designated as NCTC8532.
# (§2) A single colony selected from the different strains of S. aureus is resuspended and cultured in brain heart infusion (BHI) broth overnight (O/N) in aerobic conditions (37° C. with 220 rpm shaking), next day a 1:100 inoculum in Mueller-Hinton broth (MHB) is incubated in aerobic conditions for 3 hr (=OD0.08-0.1) and an inoculum of 1:300 dilution, corresponding to 3×10^5 CFU/ml, is incubated in presence or absence of different concentrations of the tested molecules in 1% DMSO. After O/N growth the OD of each culture was measured at 600 nm (OD600) in a spectrophotometer (Victor 3-Perkin Elmer). The MIC represents the concentration at which there is no visible growth of bacteria, i.e. ΔOD at 600 nm equal to zero (blank is the medium alone). […] The MIC of molecule 2329 against Glycopeptide intermediate-resistant (GISA) S. aureus Mu-50 (ATCC 700695) is in between 25 and 30 μM, while it is above 50 μM for molecules 2348, 2412, and 2452.
# (§3) Further experiments are conducted using different strains of S. aureus, as clinically relevant Gram-positive bacterial strains: methicillin-resistant S. aureus (MRSA) ATCC BAA-1556 and S. aureus Xen29 (Perkin Elmer ATCC 12600).
# (§4) To determine the MIC of the above mentioned molecules in MRSA or in Xen29, a single colony of MRSA or Xen29 is resuspended and cultured in brain heart infusion (BHI) broth overnight (O/N) in aerobic conditions (37° C. with 220 rpm shaking), next day a 1:100 inoculum in Mueller-Hinton broth (MHB) is incubated in aerobic conditions for 3 hr (OD=0.08-0.1) and an inoculum of 1:300 dilution, corresponding to 3×10^5 CFU/ml, is incubated in presence or absence of different concentrations of the tested molecules in 1% DMSO. After O/N growth the OD of each culture was measured at 600 nm (OD600) in a spectrophotometer (Victor 3-Perkin Elmer). The MIC represents the concentration at which there is no visible growth of bacteria, i.e. ΔOD at 600 nm equal to zero (blank is the medium alone).
# (§5) Molecule 36z has been tested for its potential antibacterial activity by determining its minimal inhibitory concentration (MIC) according to protocols recommended by EUCAST to assess the efficacy of antibiotics against bacterial strains. In brief MIC in MRSA (ATCC BAA-1556) or in Xen29 (Perkin Elmer-ATCC 12600) for 36z (molecule 25 in WO2009/034386) was determined by culturing a single colony of MRSA or Xen29 in brain heart infusion (BHI) broth overnight (O/N) in aerobic conditions (37° C. with 220 rpm shaking), while MIC for MRSE (ATCC 35984) was determined by culturing MRSE in TSB O/N. Next day a 1:100 inoculum in Mueller-Hinton broth (MHB) is incubated in aerobic conditions for 3 hr (OD=0.08-0.1) and an inoculum of 1:300 dilution, corresponding to 3×10^5 CFU/ml, is incubated in presence or absence of different concentrations of the tested molecules in 1% DMSO. After O/N growth the OD of each culture was measured at 600 nm (OD600) in a spectrophotometer (Victor 3-Perkin Elmer). The MIC represents the concentration at which there is no visible growth of bacteria, i.e. ΔOD at 600 nm equal to zero (blank is the medium alone). No antibacterial activity was found against MRSA (ATCC BAA-1556), Xen29 (Perkin Elmer-ATCC 12600 or MRSE (ATCC 35984) strains when the molecule was used at concentrations up to 200 μM.
# [3] = system: methicillin-resistant S. aureus (MRSA) ATCC BAA-1556; test: MIC determination on methicillin-resistant S. aureus; format: cell-based, Staphylococcus aureus; details: for MIC: Staphylococcus aureus; for antibacterial activity against MRSA (in words): MHB medium
# Description: as §1, §2, §3, §4, §5
# [4] = system: Staphylococcus epidermidis (ATCC 35984, also known as RP62A or MRSE); test: MIC determination on S. epidermidis (EUCAST, OD600 after overnight growth in MHB); format: cell-based
# Description: The Minimal Inhibitory Concentration (MIC) of molecules 2329, 2348, 2412, 2452 and 2461 was determined on Staphylococcus epidermidis (ATCC 35984, also known as RP62A) according to EUCAST (European Committee on Antimicrobial Susceptibility Testing) recommendations.
# Briefly, a single colony grown on a Tryptic Soy Agar (TSA) plate was resuspended and cultured in Tryptic Soy Broth (TSB) overnight (O/N) in aerobic conditions (37° C. with 220 rpm shaking), next day a 1:50 inoculum in Mueller-Hinton broth (MHB) was incubated in aerobic conditions for 3 hr and an inoculum of 1:100 dilution, corresponding to 3×10^5 CFU/ml, was incubated in presence or absence of different concentrations of the molecules in 1% DMSO (vehicle). After O/N growth the OD of each culture was measured at 600 nm in a spectrophotometer (OD600). The MIC represents the concentration at which there is no visible growth of bacteria, i.e. ΔOD at 600 nm equal to zero (blank is the medium alone).
# The Minimal Inhibitory Concentration (MIC) of pyrazolopyrimidine molecules 2539, 2544, 2666,2676, 2693, 2783, 2784 and 2782 and of purine molecules 2498, 2511, 2525, 2527, 2833, and 2840 was determined on S. epidermidis (ATCC 35984, also known as RP62A or MRSE) according to EUCAST (European Committee on Antimicrobial Susceptibility Testing) recommendations.
# Briefly, a single colony grown on an agar plate was resuspended and cultured in Triptic Soy Broth (TSB) medium overnight (O/N) in aerobic conditions (37° C. with 220 rpm shaking), next day a 1:50 inoculum in Mueller-Hinton broth (MHB) was incubated in aerobic conditions for 3 hr (OD=0.08-0.1) and an inoculum of 1:300 dilution, corresponding to 3×10^5 CFU/ml, was incubated in presence or absence of different concentrations of each of the molecules in 1% DMSO (vehicle). After O/N growth the OD of each culture was measured at 600 nm (600) in a spectrophotometer (Victor 3-Perkin Elmer). The MIC represents the concentration at which there is no visible growth of bacteria, i.e. ΔOD at 600 nm equal to zero (where ΔOD is the difference between the OD with the molecule and the OD of the blank, the medium alone).
# as §5
# [5] = target: Murl isozyme from E. faecalis (Enterococcus faecalis, UniProt Q836J0); details: read-out: IC50 Murl isozyme from E. faecalis; Table 9 of WO2009/034386; cited from earlier work
# S. aureus ATCC 25904 = test: MIC determination on S. aureus ATCC 25904; format: cell-based; details: Staphylococcus aureus, ATCC25904, read-out: MIC S. aureus ATCC25904
# Description: as §1, §2
# [6] = system: vancomycin-resistant (VRE) E. faecalis ATCC BAA-2365; test: MIC determination on vancomycin-resistant E. faecalis; format: cell-based, Enterococcus faecalis; details: Mueller-Hinton broth (MHB)
# Description: Further experiments were conducted using the clinically relevant Gram-positive bacterial strain of vancomycin-resistant (VRE) E. faecalis ATCC BAA-2365, in order to determine the Minimal Inhibitory Concentration (MIC) which is the minimal concentration required to prevent bacterial growth.
# A single colony selected from E. faecalis VRE is resuspended and cultured in the brain heart infusion (BHI) broth overnight (O/N) in aerobic conditions (37° C. with 220 rpm shaking), next day a 1:100 inoculum in Mueller-Hinton broth (MHB) is incubated in aerobic conditions for 3 hr (OD=0.08-0.1) and an inoculum of 1:300 dilution, corresponding to 3×10^5 CFU/ml, is incubated in presence or absence of different concentrations of the tested molecules in 1% DMSO. After O/N growth the OD of each culture is measured at 600 nm (OD600) in a spectrophotometer (Victor 3-Perkin Elmer). The MIC represents the concentration at which there is no visible growth of bacteria, i.e. ΔOD at 600 nm equal to zero (blank is the medium alone).
# MRSE = test: Minimal Bactericidal Concentration (MBC) for MRSE; format: cell-based, Staphylococcus epidermidis
# Description: We have determined the Minimal Bactericidal Concentration (MBC) of the pyrazolopyrimidine molecule 2666 for the MRSA strain and the MBC of the purine molecules 2329 and 2833 for MRSA and the MRSE strain respectively.
# To determine the MBC, bacteria were grown as per MIC determination in presence of the pyrazolopyrimidine molecule 2666 for MRSA or in presence of the purine molecule 2833 for MRSE or 2329 for MRSA. At 24 hours bacteria were plated on TSB agar plates by the broth microdilution method, and colonies formed on the plates were counted next day.
# The MBC represents the lowest concentration at which 99.9% bacteria of the initial inoculum are killed over 24 hours.
# [7] = ATCC12600, read-out: MIC Xen29 (comparison molecules of WO2009/034386)
# [8] = read-out: MIC MRSA (comparison molecules of WO2009/034386)
# [9] = Staphylococcus epidermidis, read-out: MIC MRSE (comparison molecules of WO2009/034386)
# Chain of Murl isozyme from E. faecalis (Q836J0 whole entry): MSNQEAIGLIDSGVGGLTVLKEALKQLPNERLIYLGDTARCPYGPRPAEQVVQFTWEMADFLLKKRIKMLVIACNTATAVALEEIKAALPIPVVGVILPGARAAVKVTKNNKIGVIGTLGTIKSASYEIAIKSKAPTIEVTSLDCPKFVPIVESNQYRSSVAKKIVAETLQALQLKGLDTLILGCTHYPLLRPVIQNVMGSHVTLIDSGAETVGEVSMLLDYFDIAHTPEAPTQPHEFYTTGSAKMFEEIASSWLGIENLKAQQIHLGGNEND
compound,measurement,setting,value
"CCCCOc1nc(NCc2cccnc2)c2ncn(Cc3c(F)ccc(Cl)c3F)c2n1 [37z″, 2-Butoxy-9-(3-chloro-2,6-difluorobenzyl)-N-(pyridin-3-ylmethyl)-9H-purin-6-amine, reference compound]",IC50,[1],5 µM
same,MIC,[2]; [7],> 200 µM
same,MIC,[3]; [8],> 200 µM
same,MIC,[4]; [9],> 200 µM
"CCCCSc1nc(N)c2ncn(Cc3c(F)ccc(Cl)c3F)c2n1 [Molecule 36z, 2-(Butylthio)-9-(3-chloro-2,6-difluorobenzyl)-9H-purin-6-amine, reference compound]",IC50,[1],5 µM
same,MIC,[2]; [7],> 200 µM
same,MIC,[3]; [8],> 200 µM
same,MIC,[4]; [9],> 200 µM
same,IC50,[5],2 µM
"CCCSc1nc(N[C@@H]2C[C@H]2c2ccc(F)c(F)c2)c2ncn([C@@H]3C[C@H](O)[C@@H](O)[C@H]3O)c2n1 [Molecule 2461, (1S,2R,3S,4R)-4-(6-(((1R,2S)-2-(3,4-difluorophenyl)cyclopropyl)amino)-2-(propylthio)-9H-purin-9-yl)cyclopentane-1,2,3-triol]",MIC,S. aureus ATCC 25904,20 to 25 µM
same,MIC,"[2]; ATCC12600, read-out: MIC S. aureus Xen29",20 to 25 µM
same,MIC,[3]; read-out: MIC S. aureus MRSA,25 µM
same,MIC,"[4]; Staphylococcus epidermidis, Mueller-Hinton broth (MHB), read-out: MIC S. epidermidis RP62",20 µM
same,MIC,[6],25 µM
"CCCn1ncc2c(N[C@@H]3C[C@H]3c3ccc(F)c(F)c3)nc(SC)nc21.Cl [Molecule 2693, N-((1R,2S)-2-(3,4-difluorophenyl)cyclopropyl)-6-(methylthio)-1-propyl-1H-pyrazolo[3,4-d]pyrimidin-4-amine hydrochloride]",MIC,"[2]; ATCC12600, read-out: MIC Xen29",> 100 µM
same,antibacterial activity against MRSA (in words),[3],active
same,MIC,[3]; read-out: MIC MRSA,20 µM
same,MIC,"[4]; MHB medium, tested up to 100 μM, hydrochloride, read-out: MIC MRSE",>100 µM
same,MIC,"[4]; Staphylococcus epidermidis, read-out: MIC MRSE",> 100 µM
"CCCCSc1nc(N[C@@H]2C[C@H]2c2ccc(F)c(F)c2)c2ncn(C)c2n1 [Molecule 2833, 2-(butylthio)-N-((1R,2S)-2-(3,4-difluorophenyl)cyclopropyl)-9-methyl-9H-purin-6-amine]","MBC relative to MIC, MRSE",MRSE,around 2 times
same,MBC,"MRSE; Staphylococcus epidermidis, MRSE, 99.9% of initial inoculum killed over 24 hours",50 µM
same,antibacterial activity against MRSA (in words),[3],active
same,MIC,[3]; read-out: MIC MRSA,50 µM
same,antibacterial activity / inhibition of MRSE growth (in words),[4]; MHB medium,able to inhibit MRSE growth
same,MIC,"[4]; Staphylococcus epidermidis, MHB medium, tested up to 100 μM, read-out: MIC MRSE",30 µM
